Earlier results in article PMC7605553 (bioRxiv, 2020).
Structures can show the parent of a compound that is named as a salt.

System: SARS-CoV-2
Details: read-out: EC50 for inhibition of SARS-CoV-2 infection; Calu-3 cells

In the case of `CN(C)C(=O)COC(=O)Cc1ccc(OC(=O)c2ccc(NC(=N)N)cc2)cc1` [camostat mesylate], the EC50 is given as 1000 nM.
